Here are results for 11 molecules from article PMC9976467, “Anti-Trypanosoma cruzi activity of Coptis rhizome extract and its constituents” (Tropical Medicine and Health, 2023).

In data set [1] the test system is T. cruzi Intracell Ama (Luc2-Tulahuen). Nature of the data set: In vitro anti-T. cruzi (intracellular amastigotes) luciferase assay in NMH cells. It is filed as cell-based, Trypanosoma cruzi. To be noted: for IC50: Trypanosoma cruzi, TULAHUEN, infected NMH cells, 72 h; for loss of luminescence intensity in IC50 curve, in words: NMH cells with amastigotes (Supplement Figure 2). The procedure: The intracellular amastigotes assay was described by Alonso-Padilla et al.. Briefly, 6 × 10^6 trypomastigotes and 3 × 10^6 host cells (NMH cells) are seeded in a 25 cm^2 flask in serum-free media (MEM + 1% newborn calf serum) to enhance the intracellular infection. After 24 h incubation, the cells were washed twice with phosphate buffered saline (PBS), then replaced by MEM + 10% newborn calf serum and incubated for another 24 h. Infected cells were detached by trypsinization. Infected host fibroblast cells (5 × 10^4/well) were seeded into a 96-well plate. Test samples and the controls were added to the mixture and incubated for 72 h. Luminescence intensity was measured by a plate reader and the Piccagene (Measurement time: 1 s).
(§1) The IC50 was calculated using the following equation: IC50=10^logA/B×50-C/D-C+logB, where A is the lowest concentration at which the percentage inhibition exceeds 50%, B is the highest concentration at which percentage inhibition is less than 50%, and C and D are the percentage inhibition of the sample at concentrations B and A, respectively.

Data set [2] concerns T. cruzi Trypo + Ama (Luc2-Tulahuen). Nature of the data set: In vitro anti-T. cruzi (trypomastigotes and amastigotes) mixture culture luciferase assay. It is filed as cell-based, Trypanosoma cruzi. The following applies: for inhibition at 20 µM / IC50: Trypanosoma cruzi, TULAHUEN; for inhibition at 20 µM: read-out: reduction of parasite signals (inhibition in the T. cruzi mixture culture); for IC50: trypomastigotes mixed with NMH cells, 72 h; for reduction of parasite signals (inhibition in the T. cruzi mixture culture): first screen, compounds 20 μM (Fig. 1). The procedure:
Luc2-Tulahuen trypomastigotes (3 × 10^4/well) and NMH cells (5 × 10^4/well) were mixed into a 96-well white plate. Test samples and controls were added and incubated with the cells for 72 h. NP-40 (Wako Pure Chemicals Industrial Ltd, Japan) was used as the positive control, and a solvent in which the drug was dissolved as a negative. After 72 h of incubation, 100 μl of luciferin solution containing 0.6% NP-40 (Piccagene) (Toyo Ink Group, Japan) was added. Luminescence intensity was measured by a plate reader (ARVO MX 1420) (Measurement time: 1 s).
as §1

A short description of data set [3]: Cytotoxicity, alamarBlue viability, NMH cells. It is filed as cell-based, mouse. The following applies: mouse. The procedure:
(§2) NMH cells or HuH28 cells (1 × 10^4/well) of 100 μl aliquots were seeded on a 96-well black plate. Test samples were added and incubated for 72 h. NP-40 was added as a positive control (100% cytotoxicity) and a solvent in which the samples were dissolved as a negative control (0% cytotoxicity). Then 10 μl of alamarBlue reagent (10%, Funakoshi Co., Tokyo, Japan) for mitochondria staining was added and incubated for another 4 h. The fluorescence intensity (544 nm/590 nm) was measured with a plate reader (measurement time: 0.1 s).
(§3) The concentration required to reduce cell viability by 50% (CC50) was calculated using the following equation: CC50=10^logA/B×50-C/D-C+logB, where A is the lowest concentration at which the cell viability exceeds 50%, B is the highest concentration at which cell viability is less than 50%, and C and D are the cell viability of the sample at concentrations B and A, respectively.

The subject of data set [4] is T. cruzi (Luc2-Tulahuen trypomastigotes). Briefly: Murine acute infection model with live bioluminescence imaging. It is filed as in vivo, BALB/c mice. To be noted: for luminescence intensity / parasiticidal activity compared with benznidazole group: 30 mg/kg bid i.p. vs benznidazole 100 mg/kg p.o., day 4 to 8. How it is done:
Mice were housed and maintained in Nagasaki University Biomedical Research Center (12 h light/dark cycle). Female BALB/c mice from 6 to 10 weeks old (20–25 g) were used in all the experiments. Mice were obtained as wild type from SLC (Japan). In standard experiments, 5 × 10^3 in vitro tissue culture-derived trypomastigotes (TCTs) was intra-peritoneally (i.p.) inoculated into mouse. The mice were handled according to the international guidelines and institutional guideline of Nagasaki University for the use and maintenance of experimental animals. Ethical approval for this study was obtained from the institutional ethical review board, Nagasaki University (approval number R12005).
Mice were intra-peritoneally injected with 150 mg/kg d-luciferin (SYD labs, USA), then anesthetized using 2.5% (vol/vol) gaseous isoflurane in oxygen. To measure bioluminescence, mice were placed in an IVIS Lumina II system (Caliper Life Science, USA) and images were acquired 10 min after d-luciferin administration using LivingImage 4.3 (Caliper Life Sciences, USA). Exposure time was fixed as 5 min. Anesthesia was maintained throughout the imaging process through the nose cone. Whole body luminescence was determined by drawing the region of interest (ROI) and quantifying the bioluminescence expressed as total flux (photons/second; p/s). Coptisine chloride was administered intra-peritoneally (i.p.) at a dose of 30 mg/kg twice a day. Benznidazole (100 mg/kg) as a positive control and the drug solvent as a negative control were administered orally (p.o.) once a day. Drug was administered for 5 consecutive days from day 4 to 8 of infection. Measurements with IVIS Lumina II were performed at five different times: on day 3 of infection (the day before drug treatment), on day 9 of infection (the day after drug treatment was completed), on day 14, 28 and 40 of infection. To maintain fairness, different experimenters performed drug treatments and luminescence intensity measurements. At day 29, BALB/c mice were injected with cyclophosphamide (Sigma-Aldrich, USA) (200 mg/kg) as an immunosuppressant by i.p. and were followed by a maximum of 3 doses at 3 day intervals. The use of immunosuppressant like cyclophosphamide could help enhance the visibility of the infected lesions even after 100 dpi. In this animal study, treatment was given when the luminescence intensity was high. In addition, an immunosuppressant was administered when the difference in luminescence intensity among the three groups became small due to natural immunity of the mice.

Data set [5] in a line: Cytotoxicity, alamarBlue viability, HuH28 cells. It is filed as cell-based. To be noted: human. How it is done:
as §2, §3
For orientation: Resazurin is reduced to fluorescent resorufin, in cell work by metabolically active cells.

Data set [6] relates to DHODH in Plasmodium falciparum. More on the design: method as in PMID 29582555. The following applies: cited from earlier work.
A further data set has as its system human DHODH. Set-up: method as in PMID 29582555. The following applies: cited from earlier work.
Data set [7] has as its system T. cruzi Epi (Luc2-Tulahuen epimastigotes). Briefly: In vitro assay for anti-epimastigote form of T. cruzi activity (luciferase). It is filed as cell-based, Trypanosoma cruzi. To be noted: for IC50: Trypanosoma cruzi, TULAHUEN, epimastigotes, 72 h. The procedure:
Luc2-Tulahuen epimastigotes (2 × 10^5/well) were dispensed into 96-well plate. After 72 h incubation, luminescence intensity was measured by adding lysis buffer with luciferin as substrate (PicaGene Luminescence Kit, Fuji Film Wako chemicals, Japan) (Measurement time: 1 s).
as §1

The subject of data set [8] is mouse fibroblast cells (NMH) and human bile duct carcinoma cell line (HuH28). Nature of the data set: Cytotoxicity screen of Kampo library on host cells (alamarBlue). It is filed as cell-based. To be noted: compounds 20 μM (Fig. 2).
Text: Data are presented as percent reduction in intensity, indicating cell viability. Experiments were done in triplicates
The conditions of data set [9]: in vivo; cited from earlier work.
The subject of data set [10] is NMH cells (newborn mouse heart fibroblast cells). Briefly: Cytotoxicity, alamarBlue viability, NMH cells. It is filed as cell-based. How it is done:
as §2, §3

Setting [11] is: NMH cells (newborn mouse heart fibroblast cells), 72 h, read-out: CC50, NMH, AlamarBlue viability.
[12] abbreviates: HuH28 cells (human bile duct carcinoma cell line), 72 h, read-out: CC50, HuH28, AlamarBlue viability.

Usually IC50 stands for the concentration that inhibits the measured activity by half. For orientation: inhibition means the relative decrease from the control value, in per cent. For orientation: CC50 means the concentration giving 50% cytotoxicity.

For the molecule `c1c2c(cc3c1OCO3)-c1cc3ccc4c(c3c[n+]1CC2)OCO4` [Coptisine chloride], the IC50 in data set [1] is 4.98 µM; in [2], 4.48 µM; in data set [7] it was 15.1 µM. For the same molecule, the inhibition at 20 µM in [2] is above 80%. Further, the half-maximal cytotoxic concentration (CC50) at 72 h in data set [3] (setting [11]) was above 40 µM; in data set [5] (setting [12]) it was above 100 µM. In addition, in data set [4] (30 mg/kg bid i.p. day 4 to 8, compared with benznidazole 100 mg/kg p.o.), the “relapse detected on day 40 after immunosuppressant” value is “smaller than that in the benznidazole treatment group”. Also, the “luminescence intensity after immune suppression treatment compared with control group” value in [4] (30 mg/kg bid i.p. day 4 to 8, day 40, after cyclophosphamide) is recorded as “significantly reduced”. The “luminescence intensity / parasiticidal activity compared with benznidazole group” value in [4] (listed as coptisine) is on record as “equivalent parasiticidal activity”; in [4] (listed as coptisine chloride), “slightly higher than that of the benznidazole group”. Also, the “luminescence intensity of treated group compared with untreated group” value in data set [4] (30 mg/kg bid i.p., day 4 to 8 of infection, after 5-day treatment) is recorded as “significantly reduced”. Further, the “adverse events during in vivo experiment” value in data set [4] (BALB/c mice, 30 mg/kg bid i.p.) is recorded as “did not see any significant adverse events”. The “inhibition of DHODH in Plasmodium falciparum, in words” value in [6] is “non-competitively inhibits”. Also, the “inhibitory activity against human DHODH, in words” value with human DHODH is “weak inhibitory activity”. For the same molecule, the “effectiveness against epimastigotes relative to benznidazole” value in data set [7] (from IC50 15.1 µM vs 3.78 µM) was “fourfold less effective”. In data set [8], the “cytotoxic effect on host cells, in words” value was “relatively lower cytotoxicity”. The “oral bioavailability, in words” value in data set [9] was “low”.

For the molecule `COc1ccc2cc3[n+](cc2c1OC)CCc1cc2c(cc1-3)OCO2.[Cl-]` [Berberin chloride], the “reduction of parasite signals (inhibition in the T. cruzi mixture culture)” value in data set [2] is “more than 80%”.

As for `COc1cc2c(cc1OC)-c1cc3ccc(OC)c(OC)c3c[n+]1CC2` [Palmatine chloride], the results for the IC50 in data set [1], in data set [2] and in data set [7] were 17.4 µM, 2.66 µM and 22.3 µM, respectively. Moreover, the inhibition at 20 µM in data set [2] was above 80%. Moreover, the CC50 at 72 h in data set [3] (setting [11]) is above 40 µM; in data set [5] (setting [12]), above 100 µM. Moreover, the “cytotoxic effect on host cells, in words” value in [8] is reported as “relatively lower cytotoxicity”.

Take `COc1cc2c(cc1OC)-c1c(C)c3ccc(OC)c(OC)c3c[n+]1CC2` [Dehydrocorydaline nitrate]: the IC50 in data set [1] was found to be 7.89 µM; in data set [2], 3.47 µM; in [7], 17.3 µM. Also, in [2], the inhibition at 20 µM was above 80%. Also, the CC50 at 72 h in data set [3] is above 40 µM; in [5] it was above 100 µM. Moreover, the “cytotoxic effect on host cells, in words” value in data set [8] was “relatively lower cytotoxicity”.

Take `CC(C)=CC[C@@H](O)C1=CC(=O)c2c(O)ccc(O)c2C1=O` [Shikonin]: the inhibition at 20 µM in data set [2] is above 80%.

For `COc1ccc2cc3[n+](cc2c1O)CCc1cc2c(cc1-3)OCO2` [Berberrubine chloride], the IC50 in data set [1] came out at 33.5 µM; in data set [2], 20.1 µM. Moreover, the CC50 at 72 h is above 40 µM in data set [3] and above 100 µM in data set [5]. In addition, the “cytotoxic effect against normal NMH cells, in words” value in [10] is given as “slight cytotoxic effect”.

In the case of `C[C@H]1CC[C@@]2(OC1)O[C@H]1C[C@H]3[C@@H]4CC[C@@H]5C[C@@H](O[C@@H]6O[C@H](CO)[C@H](O)[C@H](O)[C@H]6O[C@@H]6O[C@H](CO)[C@@H](O)[C@H](O)[C@H]6O)CC[C@]5(C)[C@H]4CC[C@]3(C)[C@H]1[C@@H]2C` [Timosaponin A-III], in [2], the inhibition at 20 µM is above 80%.

Regarding `c1cc2c(c3c1CC1c4cc5c(cc4CCN1C3)OCO5)OCO2` (racemic) [dl-Tetrahydro coptisine], the “loss of luminescence intensity in IC50 curve, in words” value was “No loss of intensity” in data set [1]; “No loss of intensity” in data set [2] (NMH cells and trypomastigotes (Supplement Figure 1)). Further, the half-inhibitory concentration (IC50) in data set [1] and in data set [2] was above 40 µM in each case. For the same molecule, the values for the CC50 at 72 h in data set [3] (setting [11]) and in data set [5] (setting [12]) were above 40 µM and above 100 µM, respectively.

On to `O=C(Cn1ccnc1[N+](=O)[O-])NCc1ccccc1` [Benznidazole, reference compound], for which the IC50 in data set [1] stood at 4.91 µM; in [2], 2.78 µM; in [7] it was 3.78 µM. Moreover, the CC50 at 72 h was above 40 µM in data set [3] and above 100 µM in data set [5].

Turning to `COc1cc2c(cc1OC)-c1cc3ccc4c(c3c[n+]1CC2)OCO4` [Epiberberine chloride], the “loss of luminescence intensity in IC50 curve, in words” value in data set [1] is given as “No loss of intensity”. The IC50 in [1] and in [2] was above 40 µM in each case. Further, the cytotoxic concentration (CC50) at 72 h in data set [3] was above 40 µM; in [5] it was above 100 µM.

For the molecule `CC(C)=CC[C@H](O)C1=CC(=O)c2c(O)ccc(O)c2C1=O` [Alkanin], the “reduction of parasite signals (inhibition in the T. cruzi mixture culture)” value in [2] is “more than 80%”.
